What was measured:
[1] = Metabolic stability in human liver microsomes; assay type: in vitro ADME; settings: 0.25 μM test compound; for % Parent Remaining (30 min) Ave ± SD: human liver microsomes 2.0 mg/mL, 2 mM NADPH, pH 7.4, 37° C.; for half-life at 0.25 μM: pH 7.4, in vitro t1/2 in human liver microsomes 2.0 mg/mL, NC = not calculable due to <20% metabolism in HLM and flat profiles, read-out: t1/2 (min) Ave ± SD
Protocol: Microsomal Assay: Human liver microsomes (20 mg/mL) were obtained from Xenotech, LLC (Lenexa, Kans.). β-nicotinamide adenine dinucleotide phosphate, reduced form (NADPH), magnesium chloride (MgCl2), and dimethyl sulfoxide (DMSO) were purchased from Sigma-Aldrich.
Determination of Metabolic Stability: 7.5 mM stock solutions of test compounds were prepared in DMSO. The 7.5 mM stock solutions were diluted to 12.5 μM in acetonitrile (ACN). The 20 mg/mL human liver microsomes were diluted to 2.5 mg/mL in 0.1 M potassium phosphate buffer, pH 7.4, containing 3 mM MgCl2. The diluted microsomes were added to wells of a 96-well deep-well polypropylene plate in triplicate. […] of the 12.5 μM test compound was added to the microsomes and the mixture was pre-warmed for 10 minutes. Reactions were initiated by addition of pre-warmed NADPH solution. The final reaction volume was 0.5 mL and contains 2.0 mg/mL human liver microsomes, 0.25 μM test compound, and 2 mM NADPH in 0.1 M potassium phosphate buffer, pH 7.4, and 3 mM MgCl2. The reaction mixtures were incubated at 37° C., and 50 μL aliquots were removed at 0, 5, 10, 20, and 30 minutes and added to shallow-well 96-well plates which contain 50 μL of ice-cold ACN with internal standard to stop the reactions. The plates were stored at 4° C. for 20 minutes after which 100 μL of water was added to the wells of the plate before centrifugation to pellet precipitated proteins. Supernatants were transferred to another 96-well plate and analyzed for amounts of parent remaining by LC-MS/MS using an Applied Bio-systems API 4000 mass spectrometer. The same procedure was followed for TPA-023 and the positive control, 7-ethoxycoumarin (1 μM). Testing was done in triplicate and individual compounds were tested in two or four different runs.
The in vitro t1/2s for test compounds were calculated from the slopes of the linear regression of % parent remaining (ln) vs incubation time relationship: in vitro t1/2=0.693/k k=−[slope of linear regression of % parent remaining (ln) vs incubation time]. Data analysis was performed using Microsoft Excel Software.
The results of these experiments are shown in Table 3, below, and in FIGS. 1 and 2. In the Table and the two Figures, “% Parent remaining” refers to the percentage of starting material remaining at the specified time point.

[2] = humans, phase I clinical trial, cited from earlier work

SMILES	% Parent Remaining (30 min) Ave ± SD [1] [%]	other results
[2H]C([2H])([2H])C([2H])([2H])n1ncnc1COc1nn2c(-c3ccccc3F)nnc2cc1C(C([2H])([2H])[2H])(C([2H])([2H])[2H])C([2H])([2H])[2H] [Compound 105]	90 ± 0.7	
[2H]C([2H])(Oc1nn2c(-c3ccccc3F)nnc2cc1C(C([2H])([2H])[2H])(C([2H])([2H])[2H])C([2H])([2H])[2H])c1ncnn1C([2H])([2H])C([2H])([2H])[2H] [Compound 106, 7-d9-tert-Butyl-6-((1-d5-ethyl-1H-1,2,4-triazol-5-yl)-methoxy-d2)-3-(2-fluorophenyl)-[1,2,4]triazolo[4,3-b]pyridazine]	89 ± 2.5	
[2H]C([2H])([2H])C(c1cc2nnc(-c3ccccc3F)n2nc1OCc1ncnn1CC)(C([2H])([2H])[2H])C([2H])([2H])[2H] [Compound 102, 7-d9-tert-Butyl-6-((1-ethyl-1H-1,2,4-triazol-5-yl)methoxy)-3-(2-fluorophenyl)-[1,2,4]-triazolo[4,3-b]pyridazine]	80 ± 3.3	half-life at 0.25 μM [1]: 85.6 ± 6.1 min

Second part, led by results:

% Parent Remaining (30 min) Ave ± SD [1] [%]	SMILES	other results
91 ± 7.1	[2H]C([2H])(Oc1nn2c(-c3ccccc3F)nnc2cc1C(C([2H])([2H])[2H])(C([2H])([2H])[2H])C([2H])([2H])[2H])c1ncnn1C([2H])([2H])[2H] [Compound 110, 7-d9-tert-Butyl-3-(2-fluorophenyl)-6-((1-d3-methyl-1H-1,2,4-triazol-5-yl)-methoxy-d2)-[1,2,4]triazolo[4,3-b]pyridazine]	
100 ± 5.7	[2H]C([2H])([2H])n1ncnc1COc1nn2c(-c3ccccc3F)nnc2cc1C(C([2H])([2H])[2H])(C([2H])([2H])[2H])C([2H])([2H])[2H] [Compound 109, 7-d9-tert-Butyl-3-(2-fluorophenyl)-6-((1-d3-methyl-1H-1,2,4-triazol-5-yl)methoxy)-[1,2,4]triazolo[4,3-b]pyridazine]	
62 ± 3.1	CCn1ncnc1COc1nn2c(-c3ccccc3F)nnc2cc1C(C)(C)C [TPA023, 7-tert-Butyl-6-(1-ethyl-1H-1,2,4-triazol-5-ylmethoxy)-3-(2-fluorophenyl)-1,2,4-triazolo[4,3-b]pyridazine]	half-life at 0.25 μM [1]: 44.5 ± 4.4 min; sedative effects ([2]; certain doses tested): sedative effects at certain doses tested; anxiolytic effects [2]: anxiolytic effects; effect on alertness, muscle relaxation or memory [2]: no effect
82 ± 2.8	[2H]C([2H])([2H])C(O)(c1cc2nnc(-c3ccccc3F)n2nc1OCc1ncnn1CC)C([2H])([2H])[2H] [Compound 202, 2-(6-((1-ethyl-1H-1,2,4-triazol-5-yl)methoxy)-3-(2-fluorophenyl)[1,2,4]triazolo[4,3-b]pyridazin-7-yl)propan-1,1,1,3,3,3-d6-2-ol]	
92 ± 3.5	[2H]C([2H])(Oc1nn2c(-c3ccccc3F)nnc2cc1C(O)(C([2H])([2H])[2H])C([2H])([2H])[2H])c1ncnn1C([2H])([2H])C([2H])([2H])[2H] [Compound 206, 2-(6-((1-d5-Ethyl-1H-1,2,4-triazol-5-1)methoxy-d2)-3-(2-fluorophenyl)-[1,2,4]triazolo[4,3-b]pyridazin-7-yl)propan-1,1,1,3,3,3-d6-2-ol]	

— patent publication US8993570B2, “Substituted triazolo-pyridazine derivatives” (Concert Pharmaceuticals, Inc., priority 2009, dated 2015)
